Reference: US9643976B2, “Solvates of darunavir” (Aurobindo Pharma Ltd., priority 2012, dated 2017)

Experiments:
[1] = hygroscopic testing (solvent content before and after); conditions: for Final (Solvent content): after hygroscopic testing at 25° C.±2° C. and 80% RH±2° C. for 24 h, solvent replaced with water; for Initial (Solvent content): before hygroscopic testing
[2] = hygroscopicity at moderate or high relative humidity at 25° C.; format: physicochemical
Text: Further, the isolation of Darunavir ethanolate involves special precautions during isolation, drying and powder processing, which is onerous during the large scale manufacturing of Darunavir ethanolate.

| Structure (SMILES) | Final (Solvent content) [1] [%] | Initial (Solvent content) [1] [%] | hygroscopicity / conversion to hydrate [2] |
| --- | --- | --- | --- |
| CC(C)CN(C[C@@H](O)[C@H](Cc1ccccc1)NC(=O)O[C@H]1CO[C@H]2OCC[C@H]21)S(=O)(=O)c1ccc(N)cc1 [Darunavir ethanolate] | 0.67 | 6.75 | hygroscopic and converts to Darunavir hydrate |
| CC(C)CN(C[C@@H](O)[C@H](Cc1ccccc1)NC(=O)O[C@H]1CO[C@H]2OCC[C@H]21)S(=O)(=O)c1ccc(N)cc1 [Darunavir propylene glycolate] | 10.37 | 11.51 | – |
